From patent US8697730B2, “5-lipoxygenase activating protein (FLAP) inhibitor” (Panmira Pharmaceuticals, LLC, priority 2007, dated 2014)

Columns and labels:
[1] = Regional dosing study in rat; design: species or system Male Sprague-Dawley rats; conditions: in vivo
CYP3A4 = CYP3A4 (Homo sapiens, UniProt P08684); assay: biochemical
[2] = test system: whole blood ionophore-stimulated leukotriene LTB4; assay: Phase 1 study, whole blood ionophore-stimulated LTB4; format: in vivo, human
Method: (§1) Pharmacodynamics: Whole blood ionophore-stimulated leukotriene LTB4 and urinary LTE4 production are assayed by ELISA and mass spectrometry, respectively.
(§2) Obtain pre-dose fasting blood samples for hematology determinations. Obtain pre-dose fasting blood samples for serum chemistry determinations. Obtain pre-dose blood samples (5 mL EDTA and 4 mL heparinized) for baseline PK and LTB4. Collect ‘spot’ urine prior to study drug administration for baseline (pre-dose) LTE4. Administer study drug. […] Collect blood samples (2 mL heparinized) for LTB4 at 0.5, 1, 2, 3, 4, 6, 8, and 12 hours. Collect urine for LTE4 for the following separate intervals: 0-3, 3-6, 6-9, and 9-12 hours. For twice daily dosing group (if conducted): administer study drug 12 hours±30 minutes after prior dose, preceded by ≧2 hours fast.
(§3) Obtain pre-dose fasting blood samples for hematology determinations. Obtain pre-dose fasting blood samples for serum chemistry determinations. […] Collect blood samples (2 mL heparinized) for LTB4 at 24 hours after the first study drug administration; 4 mL blood will be collected at this time point in the Single Dose Phase. Collect ‘spot’ urine sample for LTE4 at 24 and 36 hours after first study drug administration.
(§4) Obtain pre-dose blood samples (5 mL EDTA and 2 mL heparinized) for PK and LTB4. Collect pre-dose urine for LTE4. Administer study drug (last dose of drug). […] Collect blood samples (2 mL heparinized) for LTB4 at 0.5, 1, 2, 3, 4, 6, 8, and 12 hours. Collect urine for LTE4 for the following separate intervals: 0-3, 3-6, 6-9, and 9-12 hours after study drug administration.
(§5) Record vital signs 24 hours after Day 11 study drug administration. […] Collect blood sample (4 mL heparinized) for LTB4 at 24 hours after Day 11 study drug administration. Collect ‘spot’ urine sample for LTE4 at 24 hours after Day 11 study drug administration.
(§6) Whole blood ionophore-stimulated leukotriene LTB4 and urinary LTE4 production were assayed by ELISA and mass spectrometry, respectively.

CYP2D6 = CYP2D6 (Homo sapiens, UniProt P10635); assay: biochemical
Chain of CYP2D6 (P10635 whole entry): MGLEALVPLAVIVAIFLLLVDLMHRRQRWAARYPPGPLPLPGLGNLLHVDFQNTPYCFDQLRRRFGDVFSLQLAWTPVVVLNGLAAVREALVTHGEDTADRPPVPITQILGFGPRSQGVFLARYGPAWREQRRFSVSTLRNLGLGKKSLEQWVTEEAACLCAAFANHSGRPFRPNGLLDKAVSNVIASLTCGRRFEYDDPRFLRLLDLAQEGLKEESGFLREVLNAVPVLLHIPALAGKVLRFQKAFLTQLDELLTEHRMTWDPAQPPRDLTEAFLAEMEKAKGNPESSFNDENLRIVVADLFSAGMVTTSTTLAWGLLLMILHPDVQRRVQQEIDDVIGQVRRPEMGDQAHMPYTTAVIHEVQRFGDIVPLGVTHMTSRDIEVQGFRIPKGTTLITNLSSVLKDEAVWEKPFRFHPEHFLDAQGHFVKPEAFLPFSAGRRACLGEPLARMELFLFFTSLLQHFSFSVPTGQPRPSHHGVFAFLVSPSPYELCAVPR

in vivo [3] = assay: in vivo; design: species or system female Beagle dogs; conditions: dog
Method: For comparison, an IV formulation was also tested. Table 18 summarizes the results of the experiments of administration of the various oral formulations to female beagle dogs.

CYP2C9 = CYP2C9 (Homo sapiens, UniProt P11712); assay: biochemical
Chain of CYP2C9 (P11712 whole entry): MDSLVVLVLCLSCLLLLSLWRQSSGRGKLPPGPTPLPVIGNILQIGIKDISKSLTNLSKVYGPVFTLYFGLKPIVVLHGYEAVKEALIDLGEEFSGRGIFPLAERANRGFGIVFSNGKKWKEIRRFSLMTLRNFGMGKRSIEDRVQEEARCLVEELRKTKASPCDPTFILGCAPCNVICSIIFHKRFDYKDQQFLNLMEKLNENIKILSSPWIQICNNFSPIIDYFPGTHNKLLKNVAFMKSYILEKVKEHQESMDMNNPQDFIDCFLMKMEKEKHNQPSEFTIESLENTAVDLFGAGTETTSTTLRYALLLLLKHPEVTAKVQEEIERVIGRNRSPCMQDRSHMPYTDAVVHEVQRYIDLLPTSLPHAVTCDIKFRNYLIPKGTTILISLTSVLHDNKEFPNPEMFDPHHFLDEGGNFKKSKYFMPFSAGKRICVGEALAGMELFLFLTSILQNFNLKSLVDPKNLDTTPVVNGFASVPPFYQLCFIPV

[4] = in vivo, po, 250 mg/kg
Method: Twenty-four hours following the final administration mice were placed into an enclosed Plexiglas chamber and exposed to CO2 for a period of 1-2 minutes or until breathing ceased. They were then removed and blood was taken via a cardiac puncture and cervical dislocation was performed. Subjects were next placed in a supine position and a midline incision made. All organs were inspected and the livers removed by careful dissection. Liver weights were recorded as well as any gross abnormalities.

[5] = Solubility in organic solvents; format: physicochemical; conditions: for solubility: 25 °C, Form C, read-out: Solubility, mg/mL at 25° C.
CYP1A2 = target: T1, CYP1A2 (Homo sapiens, UniProt P05177); assay: biochemical
T1 sequence (P05177 1-516): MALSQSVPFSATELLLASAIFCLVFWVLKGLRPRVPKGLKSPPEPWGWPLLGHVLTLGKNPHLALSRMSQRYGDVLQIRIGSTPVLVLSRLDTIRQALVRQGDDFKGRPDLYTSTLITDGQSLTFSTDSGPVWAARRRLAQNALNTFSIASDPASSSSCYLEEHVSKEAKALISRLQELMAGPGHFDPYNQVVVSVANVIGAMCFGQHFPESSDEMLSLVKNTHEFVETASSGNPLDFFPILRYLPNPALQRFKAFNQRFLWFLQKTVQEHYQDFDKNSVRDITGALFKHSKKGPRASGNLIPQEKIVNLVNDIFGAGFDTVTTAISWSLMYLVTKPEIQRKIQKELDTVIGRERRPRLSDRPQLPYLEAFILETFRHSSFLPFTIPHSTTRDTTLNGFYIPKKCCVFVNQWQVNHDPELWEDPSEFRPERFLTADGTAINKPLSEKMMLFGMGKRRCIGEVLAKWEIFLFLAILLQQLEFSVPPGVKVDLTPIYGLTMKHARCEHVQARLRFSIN

in vivo [6] = conditions: male, Sprague-Dawley, rat, po
CYP2C19 = CYP2C19 (Homo sapiens, UniProt P33261); assay: biochemical
Chain of CYP2C19 (P33261 whole entry): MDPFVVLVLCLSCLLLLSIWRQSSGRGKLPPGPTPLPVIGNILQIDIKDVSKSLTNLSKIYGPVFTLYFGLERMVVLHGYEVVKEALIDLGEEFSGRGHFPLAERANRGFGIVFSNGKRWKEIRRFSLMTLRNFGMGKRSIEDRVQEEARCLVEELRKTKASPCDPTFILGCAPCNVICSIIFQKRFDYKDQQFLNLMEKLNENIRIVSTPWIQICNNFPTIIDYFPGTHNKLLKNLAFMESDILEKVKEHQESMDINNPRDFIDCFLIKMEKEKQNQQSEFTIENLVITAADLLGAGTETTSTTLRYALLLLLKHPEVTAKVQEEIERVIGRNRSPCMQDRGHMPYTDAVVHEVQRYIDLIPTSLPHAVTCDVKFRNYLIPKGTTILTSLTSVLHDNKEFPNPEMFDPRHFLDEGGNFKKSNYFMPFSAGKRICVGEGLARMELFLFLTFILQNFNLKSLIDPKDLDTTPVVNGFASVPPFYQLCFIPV

urinary LTE4 production = assay: Phase 1 study, urinary LTE4; format: in vivo, human
Method: as §1, §2, §3, §4, §5, §6

pH solubility profile = format: physicochemical; conditions: 25 °C, thermodynamic from solid
[7] = multiple dose, 450 mg daily, Day 1
[8] = multiple dose, 450 mg daily, Day 11
[9] = multiple dose, 1000 mg daily, Day 1
[10] = multiple dose, 1000 mg daily, Day 11
[11] = single dose 50 mg, oral solution
[12] = single dose 150 mg, oral solution
[13] = single dose 300 mg, oral solution
[14] = single dose 600 mg, oral solution
[15] = single dose 1000 mg, oral solution

Chain of CYP3A4 (P08684 whole entry): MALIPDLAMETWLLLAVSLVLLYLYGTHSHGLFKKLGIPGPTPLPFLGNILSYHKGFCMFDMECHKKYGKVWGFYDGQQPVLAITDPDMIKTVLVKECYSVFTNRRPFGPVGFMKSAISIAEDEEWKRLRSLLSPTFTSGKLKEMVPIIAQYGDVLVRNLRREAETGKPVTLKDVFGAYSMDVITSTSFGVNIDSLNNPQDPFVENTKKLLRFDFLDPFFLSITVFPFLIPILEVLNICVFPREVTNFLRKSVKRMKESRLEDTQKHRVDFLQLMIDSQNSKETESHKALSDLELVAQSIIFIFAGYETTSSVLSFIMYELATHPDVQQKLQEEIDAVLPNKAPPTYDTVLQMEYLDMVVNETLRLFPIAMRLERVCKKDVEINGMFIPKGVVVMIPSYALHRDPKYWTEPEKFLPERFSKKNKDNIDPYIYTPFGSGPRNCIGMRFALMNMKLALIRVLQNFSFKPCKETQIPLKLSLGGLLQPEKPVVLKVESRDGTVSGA

IC50 (CYP3A4): > 50 µM
IC50 (CYP2D6): > 50 µM
AUCdose-adjusted (in vivo [3]; iv, 2 mg/kg): 6.0
AUC(0-inf) (in vivo [3]; female, Beagle, iv, 2 mg/kg): 11900 ng·h/mL
CLp (in vivo [3]; female, Beagle, iv, 2 mg/kg): 2.9 mL/min/kg
Cmax (in vivo [3]; female, Beagle, iv, 2 mg/kg): 3200 ng/mL
Tmax (in vivo [3]; female, Beagle, iv, 2 mg/kg): 0.017 h
Vd (in vivo [3]; female, Beagle, iv, 2 mg/kg): 0.4 L/kg
bioavailability (in vivo [3]; female, Beagle, iv, 2 mg/kg): 100%
half-life (in vivo [3]; female, Beagle, iv, 2 mg/kg): 7.7 h
Tmax (in vivo [3]; female, Beagle, po, 5 mg/kg): 1.7 h
IC50 (CYP2C9): ≥ 50 µM
liver weight alteration ([4]; female, CD-1, mouse, 4 days): 9.1%
solubility ([5]; aqueous with cosolvent or surfactant or cyclodextrin, 0.5% Methylcellulose/water): 9.3 mg/mL
solubility ([5]; organic solvent or mixture, Acetonitrile): 0.2 mg/mL
solubility ([5]; organic solvent or mixture, Ethanol): 17.1 mg/mL
solubility ([5]; organic solvent or mixture, Isopropanol): 1.1 mg/mL
solubility ([5]; organic solvent or mixture, Methanol): > 50 mg/mL
solubility ([5]; organic solvent or mixture, Propylene glycol): 13.4 mg/mL
solubility in words ([5]; acetonitrile): sparingly soluble
solubility in words ([5]; isopropanol): sparingly soluble
solubility in words ([5]; methanol): very soluble
IC50 (CYP1A2): > 50 µM
Tmax (in vivo [6]): ≥ 2 h
IC50 (CYP2C19): 22 µM
solubility (pH solubility profile; aqueous medium, aqueous buffer, about pH 7, read-out: aqueous solubility): < 5 µg/mL
solubility (pH solubility profile; basic media, pH 10, aqueous buffer, read-out: solubility in basic media): > 70000 µg/mL
Compound: COc1ccc(-c2ccc(Cn3c(CC(C)(C)C(=O)O)c(SC(C)(C)C)c4cc(OCc5ccccn5)ccc43)cc2)cn1 [sodium 3-[5-(pyridin-2-ylmethoxy)-3-(2-methyl-2-propylthio)-1-[4-(2-methoxypyridin-5-yl)benzyl]-indol-2-yl]-2,2-dimethyl-propionate]
site of absorption in words [1]: mainly absorbed in the upper gastrointestinal tract
LTB4 level at t = 24 hrs. (% of baseline) [2, 7]: 24 ± 6.7 % of baseline
LTB4 level at t = 24 hrs. (% of baseline) [2, 8]: 26 ± 7.4 % of baseline
LTB4 level at t = 24 hrs. (% of baseline) [2, 9]: 2.7 ± 1.1 % of baseline
LTB4 level at t = 24 hrs. (% of baseline) [2, 10]: 1.0 ± 0.6 % of baseline
LTB4 level at t = 24 hrs. (% of baseline) [2, 11]: 75 ± 15 % of baseline
LTB4 level at t = 24 hrs. (% of baseline) [2, 12]: 58 ± 18 % of baseline
LTB4 level at t = 24 hrs. (% of baseline) [2, 13]: 36 ± 6.5 % of baseline
LTB4 level at t = 24 hrs. (% of baseline) [2, 14]: 25 ± 8.7 % of baseline
LTB4 level at t = 24 hrs. (% of baseline) [2, 15]: 23 ± 12 % of baseline
necropsy findings ([4]; mouse): no gross abnormalities
LTE4 level at t = 24 hrs. (% of baseline) (urinary LTE4 production; [7]): 8.2 ± 4.3 % of baseline
LTE4 level at t = 24 hrs. (% of baseline) (urinary LTE4 production; [8]): 2.8 ± 0.9 % of baseline
LTE4 level at t = 24 hrs. (% of baseline) (urinary LTE4 production; [9]): 2.5 ± 0.6 % of baseline
LTE4 level at t = 24 hrs. (% of baseline) (urinary LTE4 production; [10]): 2.3 ± 0.6 % of baseline
LTE4 level at t = 24 hrs. (% of baseline) (urinary LTE4 production; [11]): 77 ± 26 % of baseline
LTE4 level at t = 24 hrs. (% of baseline) (urinary LTE4 production; [12]): 23 ± 10 % of baseline
LTE4 level at t = 24 hrs. (% of baseline) (urinary LTE4 production; [13]): 10 ± 5 % of baseline
LTE4 level at t = 24 hrs. (% of baseline) (urinary LTE4 production; [14]): 8 ± 3 % of baseline
LTE4 level at t = 24 hrs. (% of baseline) (urinary LTE4 production; [15]): 3 ± 0 % of baseline
